For 17 molecules, melting point and IC50 results are on record in patent publication US6632831B2, “Branched chain amino acid-dependent aminotransferase inhibitors and their use in the treatment of neurodegenerative diseases” (Pfizer Inc., priority 2001, dated 2003).

A word on the melting point: it is the temperature, or range, at which the solid turns liquid.

Data set [1] concerns the target T1, human Branched Chain Amino Acid Aminotransferase cytosolic form (hBCATc) (Homo sapiens, UniProt P54687).
T1 construct: inferred from purification on a Ni-charged chelating column with imidazole elution; made in house; host or cells: E. coli BL21(DE3)
T1 sequence (P54687 1-386): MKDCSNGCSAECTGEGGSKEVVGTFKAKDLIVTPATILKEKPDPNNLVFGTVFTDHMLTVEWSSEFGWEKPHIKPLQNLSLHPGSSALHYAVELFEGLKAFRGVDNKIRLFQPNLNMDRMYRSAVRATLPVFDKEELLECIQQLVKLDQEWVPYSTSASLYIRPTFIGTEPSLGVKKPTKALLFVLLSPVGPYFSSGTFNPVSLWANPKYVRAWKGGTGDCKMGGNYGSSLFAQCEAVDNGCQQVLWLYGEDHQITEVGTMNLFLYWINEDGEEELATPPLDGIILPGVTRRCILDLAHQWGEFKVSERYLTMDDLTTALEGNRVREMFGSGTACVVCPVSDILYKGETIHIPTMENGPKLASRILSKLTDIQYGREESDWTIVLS
Nature of the data set: In vitro coupled enzyme assay, hBCATc. It counts as biochemical. Particulars: 37° C., 25 mM phosphate buffer pH 7.8; coupled glutamate dehydrogenase assay; read-out: hBCATc I50. As for the experimental part: In vitro enzyme assay—human Branched Chain Amino Acid Aminotransferase cytosolic form (hBCATc) and mitochondrial form (hBCATm) were assayed at 37° C. in 25 mM phosphate buffer pH 7.8. In addition, 2 mM DTT and 12.5 mM EDTA were added to the assay mixture. A coupling enzyme assay was used to monitor the production of glutamate. The formation of NADH from NAD+at […] was followed on a 96-well plate Molecular Devices plate reader. The following components were used in this coupled assay: 4 mM ADP, 1 mM NAD+, 750 μM L-Leucine, 500 μM (α-ketoglutarate, 10 μM pyridoxal phosphate, 1 unit glutamate dehydrogenase, and 1.25 μg of the appropriate BCAT enzyme. Inhibitions by compounds were assayed by adding various concentrations to this coupled assay procedure as a DMSO stock up to a 5% v/v DMSO/buffer ratio. Data is shown in Table 1.
Enzyme Preparation—humanBCATc was expressed in BL21(DE3) cells. A growing culture of cells was induced with 1 mM IPTG at room temperature overnight. These cells were harvested by centrifugation at 10,000 g for 20 minutes. The supernatant was discarded, and the cells were stored at −80° C. until needed. The protein was purified by the following method. The cell paste was resuspended in extraction buffer (0.1 M phosphate, pH 8.0, with 0.01 M Tris-HCL and 5 mM TCEP and then lysed on a French Press at 1000 psi. The lysate was centrifuged at 10,000 g for 15 minutes, and the pellet was discarded. The supernatant was loaded onto a Hitrap Chelating column previously charged with 0.1 M NiSO4 and washed with 3 to 4 column volumes of extraction buffer. The column was then washed with 0.01 Tris, pH 7.5, 10% glycerol, 150 mM NaCl, 5 mM TCEP for two column volumes. The column was then further washed with two column volumes of 0.1 M phosphate, pH 6.0, 0.01 M Tris, 10% glycerol and 750 mM NaCl. Finally, the column was washed with two column volumes of the same buffer plus 50 mM imidazole. The BCAT enzyme was then eluted with the same buffer but with 350 mM imidazole. The eluant was then dialyzed overnight against 10 mM phosphate buffer pH 8.0, 10% glycerol, and 5 mM TCEP. The dialyzed protein was then loaded onto a Q-sepharose column and eluted using a salt gradient. Active fractions were collected and further purified on a Superose-12 column to yield pure BCAT protein.

Structures are written as SMILES. Several values for one entry are separate records, joined by “and”; a condition that tells them apart may be missing. Identical values can stand only once.

In the case of `CCNC(=O)/C=C1\SC(Nc2c(Cl)cccc2Cl)=NC1=O` (hydrate or solvate) [Example 7, [2-(2,6-Dichloro-phenylamino)-4-oxo-4H-thiazol-5-ylidene]-N-ethyl-acetamide], the melting point is greater than 250 °C. As to `COC(=O)/C=C1\SC(Nc2c(Cl)cc(Cl)cc2Cl)=NC1=O` [Example 14, [2-(2,4,6-Trichloro-phenylamino)-4-oxo-4H-thiazol-5-ylidene]-acetic Acid Methyl Ester], the melting point fell in the range of 241.3 to 241.7 °C. In data set [1], the IC50 stood at 16.6 µM. The molecule `CCCNC(=O)/C=C1\SC(Nc2c(Cl)cccc2Cl)=NC1=O` (hydrate or solvate) [Example 8, [2-(2,6-Dichloro-phenylamino)-4-oxo-4H-thiazol-5-ylidene]-N-propyl-acetamide] gave a melting point greater than 230 °C.

In turn, `CCOC(=O)/C=C1\SC(Nc2c(Cl)cccc2Cl)=NC1=O` (hydrate or solvate) [Example 2, [2-(2,6-Dichloro-phenylamino)-4-oxo-4H-thiazol-5-ylidene]-acetic Acid Ethyl Ester] gave a melting point of 185 to 185.8 °C. `CC(C)(C)OC(=O)/C=C1\SC(Nc2c(Cl)cccc2Cl)=NC1=O` (hydrate or solvate) [Example 3, [2-(2,6-Dichloro-phenylamino)-4-oxo-4H-thiazol-5-ylidene]-acetic Acid Tert-butyl Ester] came in with a melting point greater than 230 °C. Regarding `COC(=O)/C=C1\SC(Nc2cc(Cl)ccc2Cl)=NC1=O` [Example 12, [2-(2,5-Dichloro-phenylamino)-4-oxo-4H-thiazol-5-ylidene]-acetic Acid Methyl Ester], the melting point fell in the range of 198.8 to 199.4 °C. For the same molecule, in data set [1], the IC50 was 27.6 µM.

Consider `COC(=O)/C=C1\SC(Nc2cccc(Cl)c2Cl)=NC1=O` [Example 13, [2-(2,3-Dichloro-phenylamino)-4-oxo-4H-thiazol-5-ylidene]-acetic Acid Methyl Ester], for which the melting point is 204 to 204.3 °C. For the same molecule, the IC50 in data set [1] worked out at 18.7 µM.

Turning to `COC(=O)/C=C1\SC(Nc2ccccc2C)=NC1=O` (hydrate or solvate) [Example 4, [2-(2-Methyl-phenylamino)-4-oxo-4H-thiazol-5-ylidene]-acetic Acid Methyl Ester], the melting point is 200.7 to 201.2 °C. In the case of `CNC(=O)/C=C1\SC(Nc2c(Cl)cccc2Cl)=NC1=O` (hydrate or solvate) [Example 6, [2-(2,6-Dichloro-phenylamino)-4-oxo-4H-thiazol-5-ylidene]-N-methyl-acetamide], the melting point was greater than 230 °C.

As for `COC(=O)/C=C1\SC(Nc2c(Cl)cccc2Cl)=NC1=O` (hydrate or solvate) [Example 1, [2-(2,6-Dichloro-phenylamino)-4-oxo-4H-thiazol-5-ylidene]-acetic Acid Methyl Ester], the melting point was 189.1 to 189.7 °C. For `COC(=O)/C=C1\SC(Nc2ccccc2Cl)=NC1=O` [Example 15, [2-(2-Chloro-phenylamino)-4-oxo-4H-thiazol-5-ylidene]-acetic Acid Methyl Ester], the melting point lay within 194 to 194.6 °C. Besides, the IC50 in data set [1] is 19.5 µM. Turning to `O=C(/C=C1\SC(Nc2c(Cl)cccc2Cl)=NC1=O)NCc1ccccc1` [Example 9, [2-(2,6-Dichloro-phenylamino)-4-oxo-4H-thiazol-5-ylidene]-N-benzyl-acetamide], the melting point lay in the range of 204.8 to 205.6 °C. Moreover, the IC50 in data set [1] was 33 µM and 24 µM. In turn, `O=C(O)/C=C1\SC(Nc2c(Cl)cccc2Cl)=NC1=O` [Example 5, [2-(2,6-Dichloro-phenylamino)-4-oxo-4H-thiazol-5-ylidene]-acetic Acid] displayed a melting point greater than 230 °C. In addition, in data set [1], the IC50 was 18.6 µM and 13.1 µM. Molecule `COC(=O)/C=C1\SC(Nc2ccc(Cl)cc2Cl)=NC1=O` [Example 11, [2-(2,4-Dichloro-phenylamino)-4-oxo-4H-thiazol-5-ylidene]-acetic Acid Methyl Ester] returned a melting point of 211.6 to 212.3 °C. Further, the IC50 in data set [1] came to 30.1 µM. As to `C=C(C)CNC(=O)/C=C1\SC(Nc2c(Cl)cccc2Cl)=NC1=O` [Example 29, 2-[2-(2,6-Dichloro-phenylamino)-4-oxo-4H-thiazol-5-ylidene]-N-(2-methyl-allyl)-acetamide], the IC50 in data set [1] was found to be 31.1 µM. `CSCCCNC(=O)/C=C1\SC(Nc2c(Cl)cccc2Cl)=NC1=O` [Example 27, 2-[2-(2,6-Dichloro-phenylamino)-4-oxo-4H-thiazol-5-ylidene]-N-(3-methylsulfanyl-propyl)-acetamide]: in data set [1], the IC50 came out at 41.2 µM. With `CONC(=O)/C=C1\SC(Nc2c(Cl)cccc2Cl)=NC1=O` (hydrate or solvate) [Example 10, [2-(2,6-Dichloro-phenylamino)-4-oxo-4H-thiazol-5-ylidene]-N-methoxy-acetamide], the melting point was 204.8 to 205.6 °C.
